Data taken from patent US5491220A, “Surface loop structural analogues of fibroblast growth factors” (Yeda Research and Development Co., Ltd., priority 1994, dated 1996).

What was measured:
ABAE cells = assay: In vitro angiogenesis: capillary-like tube formation by ABAE cells on collagen gel; format: cell-based, bovine; details: ABAE cells on type I collagen gel, 48 hours; compared with wild-type FGF-2
Experimental: In vitro anglogenesis evaluations are made by observing whether the mutants induce capillary-like structures in ABAE cells cultured on a 3-dimensionalcollagen gel. Three-dimensional collagen gel plates (24-well) are prepared by adding 0.5 ml chilled solution of 0.7 mg/ml rat-tail type I collagen (Becton Dickinson Labwares, Bedford, Mass.) containing DMEM and adjusting to neutral pH with NaHCO3 to each well. After formation of collagen gel (about 1-2 mm thickness), ABAE cells are seeded at 50,000 cells/well. The cultures are maintained at 37° C. in DMEM containing 10% calf serum (Hyclone, Logan, Utah) supplemented with penicillin (100 units/ml), streptomycin (100 μg/ml) and L-glutamine (2 mM) until the cultures reach confluency, usually in 5 days by which time the cells form a monolayer on the gel. The medium is then replaced with fresh medium containing different concentrations of FGF-2 or mutants. […]
The abundance of the capillary-like structures formed by ABAE cells is analyzed by using a Kontron IBAS Image Analyzer assisted with a Hamamatsu C2400 video camera and a Zeiss Axioshop microscope. […] The extent of in vitro angiogenesis is then measured as a percentage of the white areas. […] Three to four areas of each well are examined by image analysis and the mean value and standard deviation are determined. […]

FGFR2(IIIb) = assay: Chemical cross-linking of 125I-FGF to soluble FGFR2(IIIb); format: binding, murine; details: with and without excess unlabelled FGF
Experimental: (§1) Binding of FGF proteins to different FGF receptors are determined in this example, by measuring the degree of competition for binding to different types of FGF-receptor proteins between a radioiodinated FGF protein and various unlabelled proteins, or by the direct binding of radioiodinated FGF's to various receptor proteins. Binding studies are confirmed by chemical cross-linking of the radioiodinated FGF to soluble receptors in the presence and absence of excess unlabelled FGF.
(§2) Soluble FGF receptor proteins are constructed by cloning of the extracellular region of murine FGF receptor 1 (FGFR-1; flg), FGF receptor 2 (FGFR-2; bek) or the KGF receptor (FGFR(IIIb); K-sam) into the alkaline phosphatase-tag expression vector, which encodes for a secreted form of placental alkaline phosphatase (AP). The FGF receptor alkaline phosphatase (FRAP) plasmids are cotransfected into NIH 3T3 cells by electroporation with a selectable neomycin resistance gene. Clonies are selected in G418 (600 μg/ml) and screened for secreted AP enzyme activity in the conditioned medium. Clones of each receptor which produced a high level of AP activity (2 to 4 A405 units/min/ml) are then used to produce conditioned medium for binding assays.
(§3) Chemical cross-linking experiments are carried out at room temperature in a volume of 20 μl in siliconized 0.5-ml microcentrifuge tubes. The reaction mixtures contain FGF receptor immobilized to anti-AP monoclonal antibodies coupled to protein A Sepharose®, 200 ng/ml heparin, 2 ng/ml^125 I-bFGF, 20 mM phosphate buffer (pH 7.4), and 140 mM NaCl. After a 90 minute incubation, […] of a solution of disuccinimidyl suberate (Pierce) dissolved in dimethyl sulfoxide is added to give a final concentration of 0.15 mM, and the mixture incubated for an additional 30 minutes. The reaction is quenched by addition of […] of 200 mM ethanolamine-HCl (pH 8.0) for 30 min. The reaction mixtures are diluted 1:1 with 2× SDS-polyacrylamide gel electrophoresis loading buffer and electrophoresed on an SDS-12% polyacrylamide gel. Cross-linked FGF to the FGF receptor are detected by autoradiography on Kodak XAR film.

[1] = test system: FGF receptor on BHK cells; assay: Competition for 125I-FGF-2 binding to baby hamster kidney (BHK) cells; details: 50 pM 125I-FGF-2; compared with FGF-2
Experimental: FGF-2LI and FGF-2LA are tested for their capacity to compete for the binding of ^125 I-FGF-2 (Amersham Corp.) to baby hamster kidney (BHK) cells, which express high numbers of FGF receptor. The assay employed is described by Moscatelli (J. Cell. Physiol. 131: 123-130 (1987)). Briefly stated, BHK cells plated on 24-well plates are incubated with 50 pM ^125 I-FGF-2 with serial dilutions of unlabelled FGF-2, FGF-2LI or FGF-2LA loop mutants at room temperature for 1 hour or at 4° C. for 2 hours. The cells are then incubated at 4° C. for 30 minutes, washed twice with phosphate-buffered saline and treated with 20 mM HEPES (N-2-hydroxyethyl-piperazine-N'-2-ethanesulfonic acid), pH 7.5, containing 2M NaCl to remove ^125 I-FGF-2 bound to low affinity heparin sulfate binding sites. Receptor bound ^125 I-FGF-2 is recovered by treatment of the cells with 0.5% Triton X-100 in 0.1M sodium phosphate, pH 8, and counted in a γ-counter. Assays are conducted in duplicate.

[2] = test system: FGF receptor type 1 (FGFR1); assay: Competition binding to FGF-receptor type 1 on NIH 3T3 cells; details: compared with FGF-2
FGFR1 = assay: Chemical cross-linking of 125I-FGF to soluble FGFR1; format: binding, murine; details: with and without excess unlabelled FGF
Experimental: as §1, §2, §3

[3] = test system: soluble FGF receptor 1 (FGFR-1; flg); assay: Competition binding to soluble FGFR1 (displacement of 125I-FGF-2); design: species or system murine; details: 200 ng/ml heparin
Experimental: as §1, §2
Components of the soluble receptor binding reaction mixture include FRAP-conditioned medium (0.24 OD units/min), 2 ng/ml^125 I-FGFs and 200 ng/ml heparin. The FGF:heparin:FRAP terniary complex is immunoprecipitated with 20 μl of a 1:1 slurry of anti-AP monoclonal antibodies coupled to protein A Sepharose®. All components are mixed at room temperature. The total volume is adjusted to 200 μl by addition of DMEM containing 0.1% bovine serum albumin. Binding is allowed to proceed for 1 to 2 hours at 24° C., after which time bound receptor complex or the ligand is recovered by centrifugation at 4° C. (10 s at 2,000×g). The pelleted material is washed twice with 500 μl of an ice cold buffer containing HEPES (20 mM), NaCl (150 mM), glycerol (10%) and Triton® X-100 (1%). ^125 I-FGF binding is quantitated by counting of the samples in a gamma counter (LKB). Alternatively, AP enzyme activity of the FRAP protein is determined by transferring the FRAP receptor bound to […] to a flat-bottom microtiter plate in a volume of 50 μl of PBS. The reaction is initiated by addition of substrate (50 μl of 2× solution of AP assay buffer containing 2M diethanoiamine, 1 mM MgCl2, 20 mM homoarginine and 12 mM p-nitrophenyl phosphate). The reaction is followed at room temperature at 405 nm in a kinetic microplate reader.

For “FGF-2LA: human FGF-2 with loop residues 118-122 replaced by Lys-Lys-His-Ala-Glu-Lys-His from bovine FGF-1 (SEQ ID NO 16) (KKHAEKH; printed: Lys-Lys-His-Ala-Glu-Lys-His)”, the “Induction of tube formation (capillary-like structures)” value (ABAE cells) was “comparable with the wildtype”, the “Cross-linking to FGFR2(IIIb)” value (FGFR2(IIIb)) was “bind” and the “Capacity to compete with 125I-FGF-2 binding to FGF receptors on BHK cells” value [1] was “similar”. For the same substance, the “Competition binding curve to FGF receptor type 1 on NIH 3T3 cells” value [2] was “identical to that for FGF-2”, the “Cross-linking to FGFR1” value (FGFR1) was “bind” and the “Binding to soluble FGFR1 (competition with 125I-FGF-2)” value [3] was “bind equally well”.

For “FGF-2LI: human FGF-2 with loop residues 118-122 replaced by Ala-Gln-Phe-Pro-Asn from human interleukin-1β (SEQ ID NO 15)”, the “Induction of tube formation (capillary-like structures)” value (ABAE cells) was “much less than that by wild-type FGF-2”, the “Cross-linking to FGFR2(IIIb)” value (FGFR2(IIIb)) was “excluded from binding” and the “Capacity to compete with 125I-FGF-2 binding to FGF receptors on BHK cells” value [1] was “similar”. The “Competition binding curve to FGF receptor type 1 on NIH 3T3 cells” value [2] was “identical to that for FGF-2”, the “Cross-linking to FGFR1” value (FGFR1) was “bind” and the “Binding to soluble FGFR1 (competition with 125I-FGF-2)” value [3] was “bind equally well”.
